The target in one series is T1, human PTP-1B (Homo sapiens, UniProt P18031).
T1 construct: recombinant human PTP-1B[1-298] or PTP-1B[1-322]
T1 sequence (P18031 1-298 limits assumed): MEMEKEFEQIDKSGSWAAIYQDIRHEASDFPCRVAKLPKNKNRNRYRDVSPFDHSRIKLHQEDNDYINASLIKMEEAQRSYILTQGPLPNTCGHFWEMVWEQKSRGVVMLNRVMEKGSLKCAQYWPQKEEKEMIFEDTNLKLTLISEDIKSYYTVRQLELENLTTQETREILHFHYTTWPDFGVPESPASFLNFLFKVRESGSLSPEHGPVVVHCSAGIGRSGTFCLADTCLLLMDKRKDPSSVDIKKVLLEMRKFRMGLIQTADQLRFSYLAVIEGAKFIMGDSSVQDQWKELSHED
As to the kind of experiment: inhibitory activity (IC50) to human PTP-1B. It counts as biochemical. On the procedure:
For example, the PTP-1B inhibitory activity in vitro may be determined as follows:
Assessment of human PTP-1B (hPTP-1B) activity in the presence of various agents is determined by measuring the amount of inorganic phosphate released from a phosphopeptide substrate using a 96-well microtiter plate format. The assay (100 μL) is performed in an assay buffer comprised of 50 mM TRIS (pH 7.5), 50 mM NaCl, 3 mM DTT at ambient temperature. The assay is typically performed in the presence of 0.4% dimethyl sulfoxide (DMSO). However, concentrations as high as 10% are used with certain poorly soluble compounds. […] Inorganic phosphate, a product of the enzyme reaction, is quantitiated after 15 min as the green color resulting from complexing with the Malichite reagent and is determined as an A620 using a Molecular Devices (Sunnyvale, Calif.) SpectraMAX Plus spectrophotometer. […] Activity is defined as the net change in absorbance resulting from the activity of the uninhibited hPTP-1B[1-411] minus that of a tube with acid-inactivated hPTP-1B[1-411]. […]
Alternatively, the assessment of human PTP-1B activity in the presence of various agents may be determined by measuring the hydrolysis products of known competing substrates. […]

Broadly, the melting point is the temperature, or range, at which the solid turns liquid. As to `O=C1CN(c2cc(Oc3ccccc3)ccc2O)S(=O)(=O)N1` [Example 14, 5-(2-Hydroxy-5-phenoxyphenyl)-1,1-dioxo-1,2,5-thiadiazolidin-3-one], the melting point was 153 to 157 °C.

The IC50 is the midpoint of a concentration-inhibition curve. At human PTP-1B, `O=C1CN(c2cc(-c3cn[nH]c3)ccc2O)S(=O)(=O)N1` [Example No. 2-5, 5-[2-Hydroxy-5-(1H-pyrazol-4-yl)-phenyl]-1,1-dioxo-1,2,5-thiadiazolidin-3-one] yielded a concentration for half-maximal inhibition (IC50) of 80 nM.

At human PTP-1B, `N#CCCCn1cc(-c2ccc(O)c(N3CC(=O)NS3(=O)=O)c2)cn1` [Example No. 13-7, 4-{4-[4-Hydroxy-3-(1,1,4-trioxo-1,2,5-thiadiazolidin-2-yl)-phenyl]-1H-pyrazol-1-yl}-butyronitrile] displayed a half-maximal inhibitory concentration (IC50) of 86 nM.

(Values after patent US20080293782A1, “1,1,3-Trioxo-1,2,5-Thiadiazolidines and Their Use as Ptp-Ases Inhibitors” (priority 2005, published 2008).)
